Assay results taken from PubChem BioAssay AID330 (DTP/NCI, 2004).
“And” between values parts separate entries of the source, which are not always exact repeats. Equal entries are not always repeated. Toxic doses and inconclusive results are not listed.

Tested on: P388 leukemia ip, CD2F1 mice, survival T/C
Test: NCI In Vivo Anticancer Drug Screen. Data for tumor model P388 Leukemia (intraperitoneal) in CD2F1 (CDF1) mice
Settings: endpoint: median survival time, higher = longer survival
Summary of the method: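 Mice carrying the transplanted tumor received test compound or vehicle. Survival was recorded in each group, and the value is the treated-group measurement divided by that of the vehicle-treated control group.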

[1] = dose: 100.0 mg/kg/injection, schedule: Q01DX001 (ip), vehicle: saline
[2] = dose: 200.0 mg/kg/injection, schedule: Q01DX001 (ip), vehicle: saline
[3] = dose: 400.0 mg/kg/injection, schedule: Q01DX001 (ip), vehicle: saline
[4] = dose: 60.0 mg/kg/injection, schedule: Q01DX005 (ip), vehicle: saline with Tween-80
[5] = dose: 120.0 mg/kg/injection, schedule: Q01DX005 (ip), vehicle: saline with Tween-80
[6] = dose: 240.0 mg/kg/injection, schedule: Q01DX005 (ip), vehicle: saline with Tween-80
[7] = dose: 50.0 mg/kg/injection, schedule: Q01DX009 (ip), vehicle: saline with Tween-80
[8] = dose: 100.0 mg/kg/injection, schedule: Q01DX009 (ip), vehicle: saline with Tween-80
[9] = dose: 200.0 mg/kg/injection, schedule: Q01DX009 (ip), vehicle: saline with Tween-80

With `COCC1(C)CCCC2(C)C3=CC(O)CCC3CCC12` (stereo not given) the T/C [1] was 98 % of control, the T/C [2] was 97 % of control and the T/C [3] was 98 % of control.

For `CCCN1C(=O)C(C)N(S(=O)(=O)c2ccc(-n3nc(C)cc3C)cc2)C1=S` (stereo not given), the T/C (dose: 100.0 mg/kg/injection, schedule: Q04DX002 (ip), vehicle: saline with Tween-80) was 94 % of control, the T/C (dose: 200.0 mg/kg/injection, schedule: Q04DX002 (ip), vehicle: saline with Tween-80) was 102 % of control and the T/C (dose: 400.0 mg/kg/injection, schedule: Q04DX002 (ip), vehicle: saline with Tween-80) was 100 % of control.

In the case of `CS(=O)CC(=N\N)/C(CS(C)=O)=N/N` (stereo not given), the T/C (dose: 60.0 mg/kg/injection, schedule: Q01DX005 (ip), vehicle: saline) is reported as 100 % of control, the T/C (dose: 120.0 mg/kg/injection, schedule: Q01DX005 (ip), vehicle: saline) is reported as 95 % of control and the T/C (dose: 240.0 mg/kg/injection, schedule: Q01DX005 (ip), vehicle: saline) is reported as 102 % of control.

`O=C1C=CC2(CCCCC2)CC1` was tested, and the T/C (dose: 25.0 mg/kg/injection, schedule: Q04DX003 (ip), vehicle: Klucel (hydroxypropylcellulose) (HPC)) was 97 % of control, the T/C (dose: 50.0 mg/kg/injection, schedule: Q04DX003 (ip), vehicle: Klucel (hydroxypropylcellulose) (HPC)) was 97 % of control and the T/C (dose: 100.0 mg/kg/injection, schedule: Q04DX003 (ip), vehicle: Klucel (hydroxypropylcellulose) (HPC)) was 95 % of control.

In the case of `O=C1c2cc3c(cc2C(=O)c2cc(-c4ccccc4)c(-c4ccccc4)cc21)OCO3`, the T/C [4] is reported as 92 % of control, the T/C [5] is reported as 100 % of control and the T/C [6] is reported as 98 % of control and 102 % of control.

`C=CCOc1cc2c(cc1C/C=C/c1cc(OC)c(OC)c(OC)c1)OCO2` was tested, and the T/C (dose: 15.0 mg/kg/injection, schedule: Q01DX005 (ip), vehicle: saline with Tween-80) was 101 % of control, the T/C (dose: 30.0 mg/kg/injection, schedule: Q01DX005 (ip), vehicle: saline with Tween-80) was 104 % of control and the T/C [4] was 104 % of control and 89 % of control.

In the case of `CC(=O)Nc1cc(N2CCCCC2)c(N)c2c1C(=O)c1ccccc1C2=O`, the T/C (dose: 50.0 mg/kg/injection, schedule: Q01DX005 (ip), vehicle: Klucel (hydroxypropylcellulose) (HPC)) is reported as 102 % of control, the T/C (dose: 100.0 mg/kg/injection, schedule: Q01DX005 (ip), vehicle: Klucel (hydroxypropylcellulose) (HPC)) is reported as 97 % of control and the T/C (dose: 200.0 mg/kg/injection, schedule: Q01DX005 (ip), vehicle: Klucel (hydroxypropylcellulose) (HPC)) is reported as 98 % of control.

With `CC1=C2CCCCC2(O)OC1=O` (stereo not given) the T/C [1] was 100 % of control, the T/C [2] was 100 % of control and the T/C [3] was 103 % of control.

`C=C(C)C#CC1(O)C=C(OC)C(OC)=CC1=O` (stereo not given) was tested, and the T/C [4] was 105 % of control, the T/C [5] was 107 % of control and the T/C [6] was 88 % of control.

For `COc1ccc2[nH]c3c(C)c4cc[n+](C)cc4c(C)c3c2c1`, the T/C (dose: 3.13 mg/kg/injection, schedule: Q01DX009 (ip), vehicle: saline) was 153 % of control and the T/C (dose: 6.25 mg/kg/injection, schedule: Q01DX009 (ip), vehicle: saline) was 100 % of control.

`CN1c2ccccc2C(C)(C)C12Cc1c(N)ncc(C#N)c1N2` (stereo not given) was tested, and the T/C [7] was 91 % of control, the T/C [8] was 88 % of control and the T/C [9] was 93 % of control.

For `CCOC(=O)c1nc(SC)sc1N`, the T/C [4] was 95 % of control and the T/C [5] was 102 % of control.

For `O=c1cc[nH]cc1[N+](=O)[O-]`, the T/C (dose: 12.5 mg/kg/injection, schedule: Q01DX009 (ip), vehicle: distilled water + Tween-80) was 93 % of control, the T/C (dose: 25.0 mg/kg/injection, schedule: Q01DX009 (ip), vehicle: distilled water + Tween-80) was 98 % of control and the T/C (dose: 25.0 mg/kg/injection, schedule: Q01DX009 (ip), vehicle: saline with Tween-80) was 99 % of control. The T/C (dose: 50.0 mg/kg/injection, schedule: Q01DX009 (ip), vehicle: distilled water + Tween-80) was 108 % of control, the T/C [7] was 98 % of control and the T/C (dose: 100.0 mg/kg/injection, schedule: Q01DX009 (ip), vehicle: distilled water + Tween-80) was 101 % of control. For the same compound, the T/C [8] was 105 % of control, the T/C (dose: 100.0 mg/kg/injection, schedule: Q01DX009 (ip), vehicle: saline) was 104 % of control and 108 % of control and the T/C (dose: 200.0 mg/kg/injection, schedule: Q01DX009 (ip), vehicle: distilled water + Tween-80) was 107 % of control. The T/C [9] was 104 % of control and the T/C (dose: 200.0 mg/kg/injection, schedule: Q01DX009 (ip), vehicle: saline) was 100 % of control and 92 % of control.
